Source: patent publication US11739074B2, “Ras inhibitors” (Revolution Medicines, Inc., priority 2019, dated 2023)
Read-outs that look alike come from different tables or passages of the source.

Tests used:
Assay type in all cases: cell-based
NCI-H358 (K-Ras G12C) = assay: CellTiter-Glo cell viability assay, H358; conditions: Homo sapiens, NCI-H358, 120 h
Description: Determination of Cell Viability in RAS Mutant Cancer Cell Lines
Protocol: CellTiter-Glo® Cell Viability Assay
Note—The following protocol describes a procedure for monitoring cell viability of K-Ras mutant cancer cell lines in response to a compound of the invention. Other RAS isoforms may be employed, though the number of cells to be seeded will vary based on cell line used.
Test compounds (132.5 nL) were directly dispensed into the assay plates containing cells. […] On day 5, assay plates and their contents were equilibrated to room temperature for approximately 30 minutes. […] Luminescence was measured using the PerkinElmer Enspire. Data were normalized by the following: (Sample signal/Avg. DMSO)*100. The data were fit using a four-parameter logistic fit.

AsPC-1 (K-Ras G12D) [1] = assay: Potency assay: pERK in AsPC-1 cells; conditions: Homo sapiens
AsPC-1 (K-Ras G12D) [2] = assay: CellTiter-Glo cell viability assay, AsPC-1; conditions: Homo sapiens, ASPC1, 120 h
In short: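 Luminescence from CellTiter-Glo serves as the viability read-out after cells are treated with compound for 5 days. Each well's signal is divided by the DMSO average and multiplied by 100, and curves are fitted by four-parameter logistic regression.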

[3] = NCI-H358, K-Ras G12C, 5-day treatment, read-out: H358 Cell Viability IC50
[4] = ASPC1, AsPC-1 cells, K-Ras G12D, read-out: pERK EC50 (AsPC-1 KRAS G12D)
[5] = AsPC-1, K-Ras G12D, 5-day treatment, read-out: AsPC-1 Cell Viability IC50
[6] = read-out: H358 Cell Viability IC50, NCI-H358, K-Ras G12C, 5-day treatment
[7] = ASPC1, read-out: pERK EC50 (AsPC-1 KRAS G12D)
[8] = read-out: AsPC-1 Cell Viability IC50, AsPC-1, K-Ras G12D, 5-day treatment

Row | SMILES | IC50 (NCI-H358 (K-Ras G12C); [3]) | EC50 (AsPC-1 (K-Ras G12D) [1]; [4]) | IC50 (AsPC-1 (K-Ras G12D) [2]; [5]) | IC50 (NCI-H358 (K-Ras G12C); [6]) | EC50 (AsPC-1 (K-Ras G12D) [1]; [7]) | IC50 (AsPC-1 (K-Ras G12D) [2]; [8]) | IC50 (NCI-H358 (K-Ras G12C); read-out: H358 Cell Viability IC50) | IC50 (AsPC-1 (K-Ras G12D) [2]; read-out: AsPC-1 Cell Viability IC50)
1 | CCn1c(-c2cnccc2COC)c2c3cc(ccc31)-c1cc(O)cc(c1)C[C@H](NC(=O)[C@H](C(C)C)N(C)C(=O)[C@H]1CCN(C(=O)[C@H]3CN3)C1)C(=O)N1CCC[C@H](N1)C(=O)OCC(C)(C)C2 [Example 1, (3S)-1-((R)-aziridine-2-carbonyl)-N-((2S)-1-(((6^3S,4S)-1^1-ethyl-2^5-hydroxy-1^2-(4-(methoxymethyl)pyridin-3-yl)-10,10-dimethyl-5,7-dioxo-6^1,6^2,6^3,6^4,6^5,6^6-hexahydro-1^1H-8-oxa-1(5,3)-indola-6(1,3)-pyridazina-2(1,3)-benzenacycloundecaphane-4-yl)amino)-3-methyl-1-oxobutan-2-yl)-N-methylpyrrolidine-3-carboxamide] | < 10 nM | < 5000 nM | 1000 to 10000 nM | – | – | – | – | –
2 | CCn1c(-c2cccnc2[C@H](C)OC)c2c3cc(ccc31)-c1cc(O)cc(c1)C[C@H](NC(=O)[C@H](C(C)C)N1CC[C@]3(CCN(C(=O)[C@H]4CN4)C3)C1=O)C(=O)N1CCC[C@H](N1)C(=O)OCC(C)(C)C2 [Compound 146] | < 10 nM | < 5000 nM | 100 to 1000 nM | – | – | – | – | –
3 | CCn1c(-c2cccnc2[C@H](C)OC)c2c3cc(ccc31)-c1csc(n1)C[C@H](NC(=O)[C@H](C(C)C)N(C)C(=O)N1CCC[C@H](N(C)C(=O)[C@@H]3CN3)C1)C(=O)N1CCC[C@H](N1)C(=O)OCC(C)(C)C2 [Compound 292] | 10 to 100 nM | < 5000 nM | 1000 to 10000 nM | – | – | – | – | –
4 | CCn1c(-c2cccnc2[C@H](C)OC)c2c3cc(ccc31)-c1cc(O)cc(c1)C[C@H](NC(=O)[C@H](C(C)C)N(C)C(=O)[C@@H]1CN1)C(=O)N1CCC[C@H](N1)C(=O)OCC(C)(C)C2 [Compound 100] | 10 to 100 nM | < 5000 nM | 100 to 1000 nM | – | – | – | – | –
5 | CCn1c(-c2cc(N3CCN(C)CC3)cnc2[C@H](C)OC)c2c3cc(ccc31)-c1cc(O)cc(c1)C[C@H](NC(=O)[C@H](C1CCCC1)N(C)C(=O)CN(C)C(=O)[C@@H]1N[C@@H]1C1CC1)C(=O)N1CCC[C@H](N1)C(=O)OCC(C)(C)C2 [Compound 325] | < 10 nM | < 5000 nM | < 10 nM | – | – | – | – | –
6 | CCn1c(-c2cccnc2[C@H](C)OC)c2c3cc(ccc31)-c1cc(O)cc(c1)C[C@H](NC(=O)[C@H](C(C)C)N(C)C(=O)[C@H]1CCN(C(=O)[C@H]3CN3)C1)C(=O)N1CCC[C@H](N1)C(=O)OCC(C)(C)C2 (single isomer, unassigned) [Compound 43A] | < 10 nM | < 5000 nM | 100 to 1000 nM | – | – | – | – | –
7 | CCn1c(-c2cccnc2[C@H](C)OC)c2c3cc(ccc31)-c1cc(O)cc(c1)C[C@H](NC(=O)[C@H](C(C)C)N(C)C(=O)[C@H](C)N(C)C(=O)[C@H]1CN1)C(=O)N1CCC[C@H](N1)C(=O)OCC(C)(C)C2 [Compound 102] | – | – | – | 10 to 100 nM | < 5000 nM | 100 to 1000 nM | – | –
8 | CCn1c(-c2cnccc2COC)c2c3cc(ccc31)-c1cc(O)cc(c1)C[C@H](NC(=O)[C@H](C(C)C)N(C)C(=O)CN(C)C(=O)[C@H]1N[C@@H]1c1ccccc1)C(=O)N1CCC[C@H](N1)C(=O)OCC(C)(C)C2 [Compound 12] | – | – | – | 100 to 1000 nM | < 5000 nM | 100 to 1000 nM | – | –
9 | CCn1c(-c2cccnc2[C@H](C)OC)c2c3cc(ccc31)-c1csc(n1)C[C@H](NC(=O)[C@H](C(C)C)N(C)C(=O)N1CCCN(C(=O)[C@@H]3CN3)CC1)C(=O)N1CCC[C@H](N1)C(=O)OCC(C)(C)C2 [Compound 223] | 10 to 100 nM | < 5000 nM | 100 to 1000 nM | – | – | – | – | –
10 | CCn1c(-c2cccnc2[C@H](C)OC)c2c3cc(ccc31)-c1cc(O)cc(c1)C[C@H](NC(=O)[C@H](C(C)C)N(C)C(=O)C13CCC(CC1)N3C(=O)[C@H]1CN1)C(=O)N1CCC[C@H](N1)C(=O)OCC(C)(C)C2 [Compound 202] | 100 to 1000 nM | < 5000 nM | 1000 to 10000 nM | – | – | – | – | –
11 | CCn1c(-c2cccnc2[C@H](C)OC)c2c3cc(ccc31)-c1cc(O)cc(c1)C[C@H](NC(=O)[C@H](C1CCCC1)N(C)C(=O)CN(C)C(=O)[C@H]1[C@@H](C3CC3)N1CCCOC)C(=O)N1CCC[C@H](N1)C(=O)OCC(C)(C)C2 (stereo partly drawn) [Compound 317] | 10 to 100 nM | < 5000 nM | 10 to 100 nM | – | – | – | – | –
12 | CCn1c(-c2cccnc2[C@H](C)OC)c2c3cc(ccc31)-c1cc(O)cc(c1)C[C@H](NC(=O)[C@H](C(C)C)N(C)C(=O)CN(C)C(=O)[C@@H]1CN1CC1(C)COC1)C(=O)N1CCC[C@H](N1)C(=O)OCC(C)(C)C2 (stereo partly drawn) [Compound 280] | – | – | – | < 10 nM | < 5000 nM | 1000 to 10000 nM | – | –
13 | CCn1c(-c2cc(N3CCN(C)CC3)cnc2[C@H](C)OC)c2c3cc(ccc31)-c1cc(O)cc(c1)C[C@H](NC(=O)[C@H](C1CCCC1)N(C)C(=O)CN(C)C(=O)[C@H]1CN1)C(=O)N1CCC[C@H](N1)C(=O)OCC(C)(C)C2 [Example 209, (2R)—N-(2-(((1S)-1-cyclopentyl-2-(((6^3S,4S)-1^1-ethyl-2^5-hydroxy-1^2-(2-((S)-1-methoxyethyl)-5-(4-methylpiperazin-1-yl)pyridin-3-yl)-10,10-dimethyl-5,7-dioxo-6^1,6^2,6^3,6^4,6^5,6^6-hexahydro-1^1H-8-oxa-1(5,3)-indola-6(1,3)-pyridazina-2(1,3)-benzenacycloundecaphane-4-yl)amino)-2-oxoethyl)(methyl)amino)-2-oxoethyl)-N-methylaziridine-2-carboxamide] | – | – | – | < 10 nM | < 5000 nM | < 10 nM | – | –
14 | CCn1c(-c2cccnc2[C@H](C)OC)c2c3cc(ccc31)-c1csc(n1)C[C@H](NC(=O)[C@H](C(C)C)N(C)C(=O)N1CCN(C(=O)[C@H]3CN3)C[C@H]1C)C(=O)N1CCC[C@H](N1)C(=O)OCC(C)(C)C2 [Compound 301] | < 10 nM | < 5000 nM | 100 to 1000 nM | – | – | – | – | –
15 | CCn1c(-c2cnccc2COC)c2c3cc(ccc31)-c1cc(O)cc(c1)C[C@H](NC(=O)[C@H](C(C)C)N(C)C(=O)CN(C)C(=O)[C@H]1[C@@H](C(=O)OC)N1[S@+]([O-])C(C)(C)C)C(=O)N1CCC[C@H](N1)C(=O)OCC(C)(C)C2 (stereo partly drawn) [Example 48, methyl (2S,3R)-1-((R)-tert-butylsulfinyl)-3-((2-(((2S)-1-(((6^3S,4S)-1^1-ethyl-2^5-hydroxy-1^2-(4-(methoxymethyl)pyridin-3-yl)-10,10-dimethyl-5,7-dioxo-6^1,6^2,6^3,6^4,6^5,6^6-hexahydro-1^1H-8-oxa-1(5,3)-indola-6(1,3)-pyridazina-2(1,3)-benzenacycloundecaphane-4-yl)amino)-3-methyl-1-oxobutan-2-yl)(methyl)amino)-2-oxoethyl)(methyl)carbamoyl)aziridine-2-carboxylate] | – | – | – | – | < 5000 nM | – | 100 to 1000 nM | 1000 to 10000 nM
16 | CCn1c(-c2cccnc2[C@H](C)OC)c2c3cc(ccc31)-c1csc(n1)C[C@H](NC(=O)[C@H](C(C)C)N(C)C(=O)N1CC(CN(C)C(=O)[C@@H]3CN3)C1)C(=O)N1CCC[C@H](N1)C(=O)OCC(C)(C)C2 [Compound 225] | 10 to 100 nM | < 5000 nM | 100 to 1000 nM | – | – | – | – | –
17 | CCn1c(-c2cccnc2[C@H](C)OC)c2c3cc(ccc31)-c1cccc(c1)C[C@H](NC(=O)[C@H](C(C)C)N(C)C(=O)CN(C)C(=O)[C@H]1CN1)C(=O)N1CCC[C@H](N1)C(=O)OCC(C)(C)C2 [Compound 107] | – | – | – | 100 to 1000 nM | < 5000 nM | 1000 to 10000 nM | – | –
18 | CCn1c(-c2cccnc2[C@H](C)OC)c2c3cc(ccc31)-c1csc(n1)C[C@H](NC(=O)[C@H](C(C)C)N(C)C(=O)N1CCN(C(=O)[C@@H]3CN3)[C@H](C)C1)C(=O)N1CCC[C@H](N1)C(=O)OCC(C)(C)C2 [Compound 300] | 10 to 100 nM | < 5000 nM | 100 to 1000 nM | – | – | – | – | –
19 | CCn1c(-c2cccnc2[C@H](C)OC)c2c3cc(ccc31)-c1cc(O)cc(c1)C[C@H](NC(=O)[C@H](C(C)C)N(C)C(=O)CN(C)C(=O)[C@@]1(C)CN1)C(=O)N1CCC[C@H](N1)C(=O)OCC(C)(C)C2 [Compound 256] | – | – | – | 10 to 100 nM | < 5000 nM | 100 to 1000 nM | – | –
20 | CCn1c(-c2cccnc2[C@H](C)OC)c2c3cc(ccc31)-c1cc(O)cc(c1)C[C@H](NC(=O)[C@H](C1CCCC1)N1CC[C@]3(CCN(C(=O)[C@H]4CN4)C3)C1=O)C(=O)N1CCC[C@H](N1)C(=O)OCC(C)(C)C2 [Example 175, (2S)-2-((S)-7-((R)-aziridine-2-carbonyl)-1-oxo-2,7-diazaspiro[4.4]nonan-2-yl)-2-cyclopentyl-N-((6^3S,4S)-1^1-ethyl-2^5-hydroxy-1^2-(2-((S)-1-methoxyethyl)pyridin-3-yl)-10,10-dimethyl-5,7-dioxo-6^1,6^2,6^3,6^4,6^5,6^6-hexahydro-1^1H-8-oxa-1(5,3)-indola-6(1,3)-pyridazina-2(1,3)-benzenacycloundecaphane-4-yl)acetamide] | < 10 nM | < 5000 nM | 10 to 100 nM | – | – | – | – | –
